According to ChEMBL document CHEMBL1201862, “PubChem BioAssay data set” (2004):
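Cells were grown in 96-well plates and exposed to each compound for 48 hours at five concentrations; endpoints were interpolated linearly between bracketing concentrations, or set to the highest concentration if not reached. GI50 marks 50% less growth.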 The source made the active and inactive calls. Rule as the data show it: active = GI50 up to about 1.1 µM and inactive = higher.

Columns and labels:
Assay in all cases: NCI tumour cell line growth inhibition, 48 h
COLO 205 = system: COLO 205
EKVX = system: EKVX
HOP-62 = system: HOP-62
HOP-92 = system: HOP-92
NCI-H23 = system: NCI-H23
NCI-H522 = system: NCI-H522
RXF 393 = system: RXF 393
SF-268 = system: SF-268
SF-539 = system: SF-539
SNB-75 = system: SNB-75
SW-620 = system: SW-620
UACC-62 = system: UACC-62
UO-31 = system: UO-31
A498 = system: A498
CAKI-1 = system: CAKI-1
LOX IMVI = system: LOX IMVI

SMILES	GI50 (COLO 205)	GI50 (EKVX)	GI50 (HOP-62)	GI50 (HOP-92)	GI50 (NCI-H23)	GI50 (NCI-H522)	GI50 (RXF 393)	GI50 (SF-268)	GI50 (SF-539)	GI50 (SNB-75)	GI50 (SW-620)	GI50 (UACC-62)	GI50 (UO-31)	GI50 (A498)	GI50 (CAKI-1)	GI50 (LOX IMVI)
CC12CO[C@@](C)(CC(S(=O)(=O)c3ccccc3)C1)O2 (stereo not given in full)	> 100 µM (inactive)	> 100 µM (inactive)	> 100 µM (inactive)	> 100 µM (inactive)	> 100 µM (inactive)	> 100 µM (inactive)	> 100 µM (inactive)	> 100 µM (inactive)	> 100 µM (inactive)	37 µM (inactive)	> 100 µM (inactive)	> 100 µM (inactive)	> 100 µM (inactive)			
CC1=Nn2c(nnc2-c2ccc(Cl)cc2)NC(C)(C)C1	> 100 µM (inactive)	> 100 µM (inactive)	> 100 µM (inactive)	> 100 µM (inactive)	> 100 µM (inactive)	> 100 µM (inactive)		> 100 µM (inactive)	> 100 µM (inactive)		> 100 µM (inactive)	> 100 µM (inactive)	> 100 µM (inactive)	> 100 µM (inactive)	> 100 µM (inactive)	> 100 µM (inactive)
C/C(=C\C(C[C@](C)(O)C(O)CCC#C[Si](C)(C)C)S(=O)(=O)c1ccccc1)CC/C=C/CO[Si](C)(C)C(C)(C)C (stereo not given in full)		19.7 µM (inactive)	21.4 µM (inactive)	11.9 µM (inactive)	18.2 µM (inactive)	16.2 µM (inactive)	14.7 µM (inactive)		20 µM (inactive)		17.3 µM (inactive)	17.4 µM (inactive)	21.9 µM (inactive)	17.5 µM (inactive)	18.6 µM (inactive)	13.2 µM (inactive)
O=C1CCCCCCC2=C1C(Sc1ccccc1)CC2 (stereo not given)	62.8 µM (inactive)	20.5 µM (inactive)	> 100 µM (inactive)		33.9 µM (inactive)	18.5 µM (inactive)	18.9 µM (inactive)	19.9 µM (inactive)		21.1 µM (inactive)	36.3 µM (inactive)	36.1 µM (inactive)	18.8 µM (inactive)			15.8 µM (inactive)
Cc1cc(C)c(-c2noc(-c3ccc(Cl)cc3)c2C2=NCCCN2)c(C)c1	13.8 µM (inactive)	18 µM (inactive)	21.8 µM (inactive)		17.9 µM (inactive)	20 µM (inactive)	7.1 µM (inactive)	11.3 µM (inactive)	14.1 µM (inactive)		23.4 µM (inactive)	16.3 µM (inactive)	16.2 µM (inactive)		> 100 µM (inactive)	16.2 µM (inactive)
CCCCCCCCCCCCC(Br)C(=O)SCCNC(=O)CCNC(=O)[C@@H](O)C(C)(C)COP(=O)(O)OP(=O)(O)OCC1OC(n2cnc3c(N)ncnc32)C(O)C1OP(=O)(O)O (stereo not given in full)	> 56.5 µM (inactive)	> 56.5 µM (inactive)	> 56.5 µM (inactive)	> 56.5 µM (inactive)	> 56.5 µM (inactive)	> 56.5 µM (inactive)	> 56.5 µM (inactive)	> 56.5 µM (inactive)	> 56.5 µM (inactive)	> 56.5 µM (inactive)	> 56.5 µM (inactive)	> 56.5 µM (inactive)	> 56.5 µM (inactive)	> 56.5 µM (inactive)		28.1 µM (inactive)
O=C(/C=C/c1ccccc1)Oc1cccc2cccnc12	14.5 µM (inactive)	6.65 µM (inactive)	21.2 µM (inactive)	17.5 µM (inactive)	3.72 µM (inactive)	1.09 µM (active)	21.1 µM (inactive)	2.23 µM (inactive)	3.93 µM (inactive)	14.3 µM (inactive)	3.82 µM (inactive)	5.47 µM (inactive)	6.35 µM (inactive)		32 µM (inactive)	9.64 µM (inactive)
CNS(=O)(=O)NN(C)S(=O)(=O)c1ccccc1	> 100 µM (inactive)	> 100 µM (inactive)	> 100 µM (inactive)		> 100 µM (inactive)	> 100 µM (inactive)	0.472 µM (active)	> 100 µM (inactive)	> 100 µM (inactive)	> 100 µM (inactive)	> 100 µM (inactive)	> 100 µM (inactive)	> 100 µM (inactive)	> 100 µM (inactive)	> 100 µM (inactive)	> 100 µM (inactive)
CC(C)(C)N/N=C(\C(=O)Nc1cccc(Cl)c1)C1C(=O)Nc2ccccc2[S+]1[O-] (stereo not given)	> 100 µM (inactive)	> 100 µM (inactive)	> 100 µM (inactive)	74.8 µM (inactive)	> 100 µM (inactive)	> 100 µM (inactive)	> 100 µM (inactive)	> 100 µM (inactive)	> 100 µM (inactive)	> 100 µM (inactive)	> 100 µM (inactive)	> 100 µM (inactive)	> 100 µM (inactive)		> 100 µM (inactive)	> 100 µM (inactive)
[O-][S+]1c2ccccc2N=C(c2ccc3ccccc3c2)CC1C1=CC=CCC1 (stereo not given)	20.5 µM (inactive)	22.7 µM (inactive)	19.1 µM (inactive)		14.6 µM (inactive)	16.9 µM (inactive)	16.8 µM (inactive)	25.8 µM (inactive)	21.9 µM (inactive)	17.9 µM (inactive)	18.4 µM (inactive)	15.7 µM (inactive)	13.8 µM (inactive)		16.1 µM (inactive)	15.4 µM (inactive)
C#C[C@]1(O)CCC2C3CCc4cc(Oc5nc(F)nc(-n6c(C)nc7cc8ccccc8cc76)n5)ccc4C3CCC21C (stereo not given in full)	20.6 µM (inactive)	9.35 µM (inactive)	35.7 µM (inactive)	16.3 µM (inactive)	59.4 µM (inactive)	37.3 µM (inactive)	48.9 µM (inactive)	47.6 µM (inactive)	31.6 µM (inactive)	35.6 µM (inactive)	35 µM (inactive)	29.2 µM (inactive)	75.2 µM (inactive)			40.1 µM (inactive)
CCCCCCCCCCCCSC(=S)c1c(C)[nH]n(-c2ccccc2)c1=O	15.3 µM (inactive)	19.1 µM (inactive)	5.16 µM (inactive)	25.8 µM (inactive)	13.3 µM (inactive)		10.3 µM (inactive)	12.6 µM (inactive)	14.3 µM (inactive)		16.4 µM (inactive)	3.52 µM (inactive)	13.6 µM (inactive)	26.7 µM (inactive)	19.1 µM (inactive)	15.9 µM (inactive)
CCOC(=O)NC(=O)c1cn(C(CC)COC(=O)NCCCCCCNC(=O)OCC(CC)n2cc(C(=O)NC(=O)OCC)c(=O)[nH]c2=O)c(=O)[nH]c1=O (stereo not given)	> 100 µM (inactive)	> 100 µM (inactive)	> 100 µM (inactive)			> 100 µM (inactive)	> 100 µM (inactive)	> 100 µM (inactive)		> 100 µM (inactive)	> 100 µM (inactive)	> 100 µM (inactive)	> 100 µM (inactive)	> 100 µM (inactive)	> 100 µM (inactive)	> 100 µM (inactive)
C=C(C)CC(C)(c1cc2ccccc2n1C)N1CCOCC1 (stereo not given)	> 100 µM (inactive)	36.4 µM (inactive)	> 100 µM (inactive)	14.8 µM (inactive)	55.1 µM (inactive)	10.6 µM (inactive)	65.5 µM (inactive)	41.5 µM (inactive)	> 100 µM (inactive)	> 100 µM (inactive)	> 100 µM (inactive)	45.1 µM (inactive)	22.9 µM (inactive)		80.5 µM (inactive)	> 100 µM (inactive)
COC(=O)C12CC(C3CC31)C1CC12 (stereo not given)	> 100 µM (inactive)		> 100 µM (inactive)	59 µM (inactive)	> 100 µM (inactive)			> 100 µM (inactive)			> 100 µM (inactive)	> 100 µM (inactive)	> 100 µM (inactive)	> 100 µM (inactive)	> 100 µM (inactive)	> 100 µM (inactive)
O=C(CC1C(=O)Nc2ccccc2S1(=O)=O)Nc1cc(Cl)ccc1Cl (stereo not given)		10.6 µM (inactive)		14.2 µM (inactive)	17.9 µM (inactive)		15.8 µM (inactive)	10.8 µM (inactive)	2.4 µM (inactive)	14.6 µM (inactive)	19.4 µM (inactive)	14.6 µM (inactive)	15.6 µM (inactive)	15.8 µM (inactive)	16.1 µM (inactive)	5.37 µM (inactive)
O=c1n(-c2ccccc2)c(=O)n2n1C1C=CC2C2C(C1)C2(Cl)Cl (stereo not given)	> 100 µM (inactive)	> 100 µM (inactive)	> 100 µM (inactive)			> 100 µM (inactive)	> 100 µM (inactive)	> 100 µM (inactive)	> 100 µM (inactive)	> 100 µM (inactive)	> 100 µM (inactive)	> 100 µM (inactive)	> 100 µM (inactive)	> 100 µM (inactive)	> 100 µM (inactive)	> 100 µM (inactive)
CC(C)(C)c1cc(C(O)(C(F)(F)F)C(F)(F)F)c2c(c1)C(C(F)(F)F)(C(F)(F)F)OC(C)(C(C)(C)C)N2 (stereo not given)	2.05 µM (inactive)	3.94 µM (inactive)		< 0.01 µM (active)	2 µM (inactive)	1.82 µM (inactive)	4.43 µM (inactive)		3.55 µM (inactive)	2 µM (inactive)	3.68 µM (inactive)	3.58 µM (inactive)	2.97 µM (inactive)		3.04 µM (inactive)	
CN1C(=O)CC2(C)c3cc(O)cc(Br)c3N(C)C12 (stereo not given)	> 100 µM (inactive)	> 100 µM (inactive)	> 100 µM (inactive)	> 100 µM (inactive)	> 100 µM (inactive)	> 100 µM (inactive)	> 100 µM (inactive)	> 100 µM (inactive)	> 100 µM (inactive)	30.8 µM (inactive)	> 100 µM (inactive)	81.5 µM (inactive)	57.7 µM (inactive)	> 100 µM (inactive)		> 100 µM (inactive)
